# BindingDB's records for doi:10.1016/j.ejmech.2015.08.002 (Ochanomizu University, 2015)
# Target: Androgen receptor (Mus musculus) (UniProt P19091)
# Test: Antagonist activity at wild type AR expressed in mouse SC-3 cells assessed as inhibition of 1 nM DHT-induced cell proliferation after 3 days by WST-8 assay
# Androgen receptor (Mus musculus), sequence (P19091 whole entry, looked up): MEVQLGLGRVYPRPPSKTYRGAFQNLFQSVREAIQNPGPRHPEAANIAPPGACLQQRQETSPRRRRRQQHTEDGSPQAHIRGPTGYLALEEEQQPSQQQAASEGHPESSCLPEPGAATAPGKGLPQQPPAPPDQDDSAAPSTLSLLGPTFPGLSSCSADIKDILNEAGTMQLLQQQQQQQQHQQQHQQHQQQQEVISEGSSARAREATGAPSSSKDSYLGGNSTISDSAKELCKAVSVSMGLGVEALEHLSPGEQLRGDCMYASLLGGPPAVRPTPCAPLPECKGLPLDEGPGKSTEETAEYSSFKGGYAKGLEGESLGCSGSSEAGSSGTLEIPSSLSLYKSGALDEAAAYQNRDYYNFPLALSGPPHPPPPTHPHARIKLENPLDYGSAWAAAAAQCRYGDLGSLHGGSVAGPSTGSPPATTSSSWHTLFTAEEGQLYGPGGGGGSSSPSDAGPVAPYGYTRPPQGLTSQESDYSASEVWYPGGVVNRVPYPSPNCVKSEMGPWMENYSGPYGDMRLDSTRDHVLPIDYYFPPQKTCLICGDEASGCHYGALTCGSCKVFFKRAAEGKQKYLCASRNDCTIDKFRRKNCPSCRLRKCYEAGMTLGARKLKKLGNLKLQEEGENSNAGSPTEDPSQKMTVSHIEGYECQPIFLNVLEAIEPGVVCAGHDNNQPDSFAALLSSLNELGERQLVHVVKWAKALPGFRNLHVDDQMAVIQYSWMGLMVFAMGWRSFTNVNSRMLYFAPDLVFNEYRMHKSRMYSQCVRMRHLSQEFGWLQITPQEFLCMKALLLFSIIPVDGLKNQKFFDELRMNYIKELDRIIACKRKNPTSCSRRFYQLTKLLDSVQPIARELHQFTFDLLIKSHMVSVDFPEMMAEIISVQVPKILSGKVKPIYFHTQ
row,SMILES,IC50 [nM]
1,O=c1[nH]nc(Cc2ccccc2)c2ccccc12,5370
2,Cc1ccccc1Cc1n[nH]c(=O)c2ccccc12,9540
3,COc1ccccc1Cc1n[nH]c(=O)c2ccccc12,9590
4,O=c1[nH]nc(Cc2ccccc2F)c2ccccc12,10500
5,O=c1[nH]nc(Cc2ccccc2C(F)(F)F)c2ccccc12,3670
6,O=c1[nH]nc(Cc2ccccc2[N+](=O)[O-])c2ccccc12,530
7,Nc1ccccc1Cc1n[nH]c(=O)c2ccccc12,220
8,O=C(Nc1ccccc1Cc1n[nH]c(=O)c2ccccc12)C(F)(F)F,1010
9,CCN(CC)c1ccccc1Cc1n[nH]c(=O)c2ccccc12,1660
10,CCNc1ccccc1Cc1n[nH]c(=O)c2ccccc12,3710
11,CN(C)c1ccccc1Cc1n[nH]c(=O)c2ccccc12,1950
12,CNc1ccccc1Cc1n[nH]c(=O)c2ccccc12,9020
13,Cc1cccc(C)c1Cc1n[nH]c(=O)c2ccccc12,1380
14,O=c1[nH]nc(Cc2c(F)cccc2F)c2ccccc12,3760
15,O=c1[nH]nc(Cc2c(Cl)cccc2Cl)c2ccccc12,180
16,O=c1[nH]nc(Cc2c(Cl)ccc(Cl)c2Cl)c2ccccc12,920
17,O=c1[nH]nc(Cc2ccccc2Cl)c2ccccc12 [4-(2-chlorobenzyl)phthalazin-1(2H)-one],1260
